Test results: patent US9249152B2, “Cyano containing azabenzofuran compounds for the treatment of hepatitis C” (BRISTOL-MYERS SQUIBB COMPANY, priority 2014, dated 2016)
Read-outs that look alike come from different tables or passages of the source.

Test system: genotype 1b (Con-1) HCV replicon
Test: HCV replicon luciferase assay, genotype 1b (Con-1)
Assay type: cell-based
Details: genotype 1b HCV replicon, Huh-7 cells, Renilla luciferase, 3 days
Procedure: The cell lines used to evaluate compounds consist of a human hepatocyte derived cell line (Huh-7) that constitutively expresses a genotype 1b (Con-1) HCV replicon or a genotype 1b (Con-1) HCV replicon with an asparagine replacing the cysteine at amino acid 316, or a genotype 2a (JFH-1) replicon, containing a Renilla luciferase reporter gene. These cells were maintained in Dulbecco's modified Eagle medium (DMEM) containing 10% FBS, 100 U/mL penicillin/streptomycin and 1.0 mg/mL G418.
To evaluate compound efficacy, titrated compounds were transferred to sterile 384-well tissue culture treated plates, and the plates were seeded with HCV replicon cells (50 μL at a density of 2.4×10^3 cells/well) in DMEM containing 4% FBS (final DMSO concentration at 0.5%). After 3 days incubation at 37° C., cells were analyzed for Renilla Luciferase activity using the EnduRen substrate (Promega cat #E6485) according to the manufacturer's directions. Briefly, the EnduRen substrate was diluted in DMEM and then added to the plates to a final concentration of 7.5 μM. The plates were incubated for at least 1 h at 37° C. then read on a Viewlux Imager (PerkinElmer) using a luminescence program. The 50% effective concentration (EC50) was calculated using the four-parameter logistic formula noted above.

[1] = Hepatitis C virus, Huh-7, 72 h, read-out: EC50 (uM) 1b
[2] = Hepatitis C virus, Huh-7, 72 h, read-out: EC50 1b (class)

| Compound | EC50 [1] | EC50 (read-out: EC50 1b (class)) | EC50 [2] |
| --- | --- | --- | --- |
| CNC(=O)c1c(-c2ccc(F)cc2)oc2nc(CCC(F)(F)F)c(-c3cccc(C(=O)NC(C)(C#N)C4CC4)c3)cc12 (stereo not shown) [Compound 11006] | 0.0022 µM | < 0.1 µM |  |
| CNC(=O)c1c(-c2ccc(F)cc2)oc2nc(Cl)c(-c3cccc(C(=O)NC4(C#N)CCCC4)c3)cc12 [Compound 10006] | 0.076 µM |  | < 0.1 µM |
| CNC(=O)c1c(-c2ccc(F)cc2)oc2nc(CCC(F)(F)F)c(-c3cnc(OC)c(C(=O)NC4(C#N)CCCC4)c3)cc12 [Compound K7004] |  |  | < 0.1 µM |
| CNC(=O)c1c(-c2ccc(F)cc2)oc2nc(CCC(F)(F)F)c(-c3cccc(C(=O)NC(C)(C#N)CF)c3)cc12 (stereo not shown) [Compound 11012] |  |  | < 0.1 µM |
| CNC(=O)c1c(-c2ccc(F)cc2)oc2nc(Cl)c(-c3ccc(OC)c(C(=O)NC(C)(C)C#N)c3)cc12 [Compound 10001] | 0.0738 µM |  | < 0.1 µM |
| CNC(=O)c1c(-c2ccc(F)cc2)oc2nc(Cl)c(-c3cccc(C(=O)NC(C)(C)C#N)c3)cc12 [Compound 10004] | 0.105 µM |  | 0.1 to 1 µM |
| CNC(=O)c1c(-c2ccc(F)cc2)oc2nc(NCC(F)(F)F)c(-c3ccc(F)c(C(=O)NC(C)(C)C#N)c3)cc12 [Compound K2001] |  |  | < 0.1 µM |
| CNC(=O)c1c(-c2ccc(F)cc2)oc2nc(NCC(F)(F)C(F)(F)F)c(-c3cccc(C(=O)NC4(C#N)CCCC4)c3)cc12 [Compound 30003] |  |  | < 0.1 µM |
| CNC(=O)c1c(-c2ccc(F)cc2)oc2nc(CCC(F)(F)F)c(-c3ccc(F)c(C(=O)NC(C)(C)C#N)c3)cc12 [Compound K1003] |  |  | < 0.1 µM |
| CNC(=O)c1c(-c2ccc(F)cc2)oc2nc(NCC(F)(F)F)c(-c3ccc(OC)c(C(=O)NC4(C#N)CC4)c3)cc12 [Compound K5002] |  |  | < 0.1 µM |
| CNC(=O)c1c(-c2ccc(F)cc2)oc2nc(NCC(F)(F)F)c(-c3ccc(F)c(C(=O)NC(C)C#N)c3)cc12 (stereo not shown) [Compound 22002] |  | < 0.1 µM |  |
| CNC(=O)c1c(-c2ccc(F)cc2)oc2nc(NCC(F)(F)F)c(-c3cc(Cl)c(NCC(F)(F)F)c(C(=O)NC(C)(C)C#N)c3)cc12 [Compound 24001] | 0.0539 µM |  | < 0.1 µM |
| CNC(=O)c1c(-c2ccc(F)cc2)oc2nc(CCC(F)(F)F)c(-c3cccc(C(=O)NC(C)(C#N)C(C)C)c3)cc12 (stereo not shown) [Compound 11004] |  |  | < 0.1 µM |
| CNC(=O)c1c(-c2ccc(F)cc2)oc2nc(CCC(F)(F)F)c(-c3ccc(OC)c(C(=O)NC(C)(C#N)C(C)C)c3)cc12 (stereo not shown) [Compound 12004] | 0.0033 µM |  | < 0.1 µM |
| CNC(=O)c1c(-c2ccc(F)cc2)oc2nc(NCC(F)(F)F)c(-c3ccc(OC)c(C(=O)NC(C)(C#N)C(C)C)c3)cc12 (stereo not shown) [Compound K5004] | 0.0028 µM |  | < 0.1 µM |
| CNC(=O)c1c(-c2ccc(F)cc2)oc2nc(CCC(F)(F)F)c(-c3ccc(OC)c(C(=O)NC4(C#N)CC4)c3)cc12 [Compound K6001] |  |  | < 0.1 µM |
| CNC(=O)c1c(-c2ccc(F)cc2)oc2nc(CCC(F)(F)F)c(-c3ccc(OC)c(C(=O)NC4(C#N)CCCC4)c3)cc12 [Compound 12003] |  |  | < 0.1 µM |
| CNC(=O)c1c(-c2ccc(F)cc2)oc2nc(CCC(F)(F)F)c(-c3ccc(F)c(C(=O)NC4(C#N)CC4)c3)cc12 [Compound K1001] | 0.0061 µM |  | < 0.1 µM |
| CNC(=O)c1c(-c2ccc(F)cc2)oc2nc(NCC(F)(F)C(F)(F)F)c(-c3ccc(OC)c(C(=O)NC(C)(C#N)C(C)C)c3)cc12 (stereo not shown) [Compound 31001] |  |  | < 0.1 µM |
| CNC(=O)c1c(-c2ccc(F)cc2)oc2nc(CCC(F)(F)F)c(-c3cccc(C(=O)NC4(C#N)CCC4)c3)cc12 [Compound 11002] |  |  | < 0.1 µM |
| CNC(=O)c1c(-c2ccc(F)cc2)oc2nc(Cl)c(-c3cccc(C(=O)NC4(C#N)CCC4)c3)cc12 [Compound 10005] |  |  | < 0.1 µM |
| [2H]C([2H])([2H])Oc1ncc(-c2cc3c(C(=O)NC)c(-c4ccc(F)cc4)oc3nc2CCC(F)(F)F)cc1C(=O)NC(C)(C#N)C1CC1 (stereo not shown) [Compound 18001] | 0.0037 µM |  | < 0.1 µM |
